The supplement of paper PMC10307832

Experiments:
Assay in all cases: relative viability (nuclei count vs DMSO), 5 days (fraction); higher = more cells survive
201T = system: 201T
Procedure, shortened: (§1)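 Nuclei were stained with Hoechst during a one-step fixation (final 0.05% Triton X-100, 1% formaldehyde, 1 ug/ml Hoechst) carried out 5 days after dosing, then counted on 4× images. The cells, lung cancer lines in 1536-well plates, had been dosed by pin tool the day after seeding with one drug alone or a fixed anchor-drug dose plus five library-drug doses (not always all listed) in √10 steps. Relative viability is the nuclei count in treated wells divided by that in vehicle wells, and each value is the median of duplicate plates.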

BEN = system: BEN
Procedure, shortened: as §1

EMC-BAC-2 = system: EMC-BAC-2
Procedure, shortened: as §1

HARA = system: HARA
Procedure, shortened: as §1

LCLC-103H = system: LCLC-103H
Procedure, shortened: as §1

LOU-NH91 = system: LOU-NH91
Procedure, shortened: as §1

NCI-H1395 = system: NCI-H1395
Procedure, shortened: as §1

NCI-H1993 = system: NCI-H1993
Procedure, shortened: as §1

NCI-H2023 = system: NCI-H2023
Procedure, shortened: as §1

NCI-H2087 = system: NCI-H2087
Procedure, shortened: as §1

NCI-H2126 = system: NCI-H2126
Procedure, shortened: as §1

NCI-H2347 = system: NCI-H2347
Procedure, shortened: as §1

NCI-H23 = system: NCI-H23
Procedure, shortened: as §1

NCI-H3122 = system: NCI-H3122
Procedure, shortened: as §1

NCI-H441 = system: NCI-H441
Procedure, shortened: as §1

NCI-H596 = system: NCI-H596
Procedure, shortened: as §1

NCI-H647 = system: NCI-H647
Procedure, shortened: as §1

NCI-H650 = system: NCI-H650
Procedure, shortened: as §1

NCI-H727 = system: NCI-H727
Procedure, shortened: as §1

NCI-H838 = system: NCI-H838
Procedure, shortened: as §1

Question: Which results are given for `CCN(CC)CCCCNc1ncc2cc(-c3cc(OC)cc(OC)c3)c(NC(=O)NC(C)(C)C)nc2n1` + COc1cc2c(Oc3ccc(NC(=O)C4(C(=O)Nc5ccc(F)cc5)CC4)cc3F)ccnc2cc1OCCCN1CCOCC1 [Foretinib] (partner 0.25 µM)?
Answer: relative viability (201T; first compound 0.03162 µM): 1.06; relative viability (201T; first compound 0.1 µM): 1.2; relative viability (201T; first compound 0.3162 µM): 1.05; relative viability (201T; first compound 1 µM): 1.03; relative viability (BEN; first compound 0.01 µM): 0.597; relative viability (BEN; first compound 0.03162 µM): 0.544; relative viability (BEN; first compound 0.1 µM): 0.796; relative viability (BEN; first compound 0.3162 µM): 0.618; relative viability (BEN; first compound 1 µM): 0.382; relative viability (EMC-BAC-2; first compound 0.01 µM): 0.54; relative viability (EMC-BAC-2; first compound 0.03162 µM): 1.02; relative viability (EMC-BAC-2; first compound 0.1 µM): 0.983; relative viability (EMC-BAC-2; first compound 0.3162 µM): 1.13; relative viability (EMC-BAC-2; first compound 1 µM): 0.952; relative viability (HARA; first compound 0.01 µM): 0.996; relative viability (HARA; first compound 0.03162 µM): 0.848; relative viability (HARA; first compound 0.1 µM): 0.998; relative viability (HARA; first compound 0.3162 µM): 0.985; relative viability (HARA; first compound 1 µM): 0.493; relative viability (LCLC-103H; first compound 0.01 µM): 0.942; relative viability (LCLC-103H; first compound 0.03162 µM): 0.866; relative viability (LCLC-103H; first compound 0.1 µM): 0.858; relative viability (LCLC-103H; first compound 0.3162 µM): 0.755; relative viability (LCLC-103H; first compound 1 µM): 0.597; relative viability (LOU-NH91; first compound 0.01 µM): 0.927; relative viability (LOU-NH91; first compound 0.03162 µM): 0.916; relative viability (LOU-NH91; first compound 0.1 µM): 0.959; relative viability (LOU-NH91; first compound 0.3162 µM): 0.977; relative viability (LOU-NH91; first compound 1 µM): 0.912; relative viability (NCI-H1395; first compound 0.01 µM): 0.999; relative viability (NCI-H1395; first compound 0.03162 µM): 1.02; relative viability (NCI-H1395; first compound 0.1 µM): 0.912; relative viability (NCI-H1395; first compound 0.3162 µM): 0.887; relative viability (NCI-H1395; first compound 1 µM): 0.818; relative viability (NCI-H1993; first compound 0.01 µM): 0.751; relative viability (NCI-H1993; first compound 0.03162 µM): 0.791; relative viability (NCI-H1993; first compound 0.1 µM): 0.934; relative viability (NCI-H1993; first compound 0.3162 µM): 0.917; relative viability (NCI-H1993; first compound 1 µM): 0.714; relative viability (NCI-H2023; first compound 0.01 µM): 0.954; relative viability (NCI-H2023; first compound 0.03162 µM): 0.961; relative viability (NCI-H2023; first compound 0.1 µM): 0.864; relative viability (NCI-H2023; first compound 0.3162 µM): 0.853; relative viability (NCI-H2023; first compound 1 µM): 0.758; relative viability (NCI-H2087; first compound 0.01 µM): 1.25; relative viability (NCI-H2087; first compound 0.03162 µM): 1.13; relative viability (NCI-H2087; first compound 0.1 µM): 1.45; relative viability (NCI-H2087; first compound 0.3162 µM): 1.16; relative viability (NCI-H2087; first compound 1 µM): 1.21; relative viability (NCI-H2126; first compound 0.01 µM): 1.37; relative viability (NCI-H2126; first compound 0.03162 µM): 1.3; relative viability (NCI-H2126; first compound 0.1 µM): 1.14; relative viability (NCI-H2126; first compound 0.3162 µM): 1.22; relative viability (NCI-H2126; first compound 1 µM): 1.11; relative viability (NCI-H2347; first compound 0.01 µM): 0.744; relative viability (NCI-H2347; first compound 0.03162 µM): 0.85; relative viability (NCI-H2347; first compound 0.1 µM): 1.4; relative viability (NCI-H2347; first compound 0.3162 µM): 1.12; relative viability (NCI-H2347; first compound 1 µM): 0.766; relative viability (NCI-H23; first compound 0.01 µM): 1.01; relative viability (NCI-H23; first compound 0.03162 µM): 0.831; relative viability (NCI-H23; first compound 0.1 µM): 1.23; relative viability (NCI-H23; first compound 0.3162 µM): 0.984; relative viability (NCI-H23; first compound 1 µM): 0.955; relative viability (NCI-H3122; first compound 0.01 µM): 0.967; relative viability (NCI-H3122; first compound 0.03162 µM): 0.927; relative viability (NCI-H3122; first compound 0.1 µM): 1.08; relative viability (NCI-H3122; first compound 0.3162 µM): 1.05; relative viability (NCI-H3122; first compound 1 µM): 1.02; relative viability (NCI-H441; first compound 0.01 µM): 1.02; relative viability (NCI-H441; first compound 0.03162 µM): 1.19; relative viability (NCI-H441; first compound 0.1 µM): 1.04; relative viability (NCI-H441; first compound 0.3162 µM): 1.04; relative viability (NCI-H441; first compound 1 µM): 0.918; relative viability (NCI-H596; first compound 0.01 µM): 0.852; relative viability (NCI-H596; first compound 0.03162 µM): 0.919; relative viability (NCI-H596; first compound 0.1 µM): 0.943; relative viability (NCI-H596; first compound 0.3162 µM): 0.931; relative viability (NCI-H596; first compound 1 µM): 0.73; relative viability (NCI-H647; first compound 0.01 µM): 1.15; relative viability (NCI-H647; first compound 0.03162 µM): 1.39; relative viability (NCI-H647; first compound 0.1 µM): 1.43; relative viability (NCI-H647; first compound 0.3162 µM): 1.55; relative viability (NCI-H647; first compound 1 µM): 1.08; relative viability (NCI-H650; first compound 0.01 µM): 0.968; relative viability (NCI-H650; first compound 0.03162 µM): 0.992; relative viability (NCI-H650; first compound 0.1 µM): 1.06; relative viability (NCI-H650; first compound 0.3162 µM): 1.09; relative viability (NCI-H650; first compound 1 µM): 1.13; relative viability (NCI-H727; first compound 0.01 µM): 0.956; relative viability (NCI-H727; first compound 0.03162 µM): 0.834; relative viability (NCI-H727; first compound 0.1 µM): 0.919; relative viability (NCI-H727; first compound 0.3162 µM): 1.05; relative viability (NCI-H727; first compound 1 µM): 0.844; relative viability (NCI-H838; first compound 0.01 µM): 1.01; relative viability (NCI-H838; first compound 0.03162 µM): 0.958; relative viability (NCI-H838; first compound 0.1 µM): 1.19; relative viability (NCI-H838; first compound 0.3162 µM): 0.986; relative viability (NCI-H838; first compound 1 µM): 0.789
